This is an account of results in US20170342026A1, “ISOPROPOXY-PHENYLGUANIDINE SERIES SALT AND APPLICATION THEREOF IN PREPARING GROWTH PROMOTERS FOR ANIMAL FEED” (GUANGZHOU INSIGHTER BIOTECHNOLOGY CO., LTD., priority 2015, published 2017).

Common to all, as to assay type: in vivo
The subject of series [1] is broilers. Description: Effects of the series of salts of isopropoxy-phenylguanidine on production performance of broilers. To be noted: 50 ppm in feed, 30 days; for Average daily weight gain / Average feed conversion ratio / Survival rate (%): 1-day-old broilers; for effect on production performance compared with hydrochloride: broilers. How it is done: One thousand and five hundred (1500) 1-day-old broilers were divided into 15 groups and each group with 100 broilers. Different types of salts of isopropoxy-phenylguanidine were added to the same basic diets. The broilers were free feeding and drinking and continued feeding for 30 days, then to collect statistics of the production performance and the survival rate of broilers in each group.

Series [2] deals with Duroc×Landrace×Large White piglets. As to the kind of experiment: Effects of the salts of isopropoxy-phenylguanidine in a feed for pigs. To be noted: 100 ppm in feed; for Average daily weight gain / Feed conversion ratio: piglets aged 28 days; for effect on production performance compared with hydrochloride: pigs, 28 days. The protocol:
One hundred and twenty (120) Duroc×Landrace×Large White piglets aged 28 days with similar body weight were randomly divided into 6 groups, each with 20 pigs. Different types of salts of isopropoxy-phenylguanidine were added to the feeds respectively in accordance with Table 3. The pigs were free feeding and drinking during the test period of 28 days.

The test system of series [3] is Cherry Valley ducks. Description: Effects of the salts of isopropoxy-phenylguanidine in a feed for ducks. To be noted: 50 ppm in feed, 28 days; for Average daily weight gain / Feed conversion ratio: ducks aged 1 day; for effect on production performance compared with hydrochloride: ducks. How it is done:
Six hundred (600) Cherry Valley ducks aged 1 day were randomly divided into 6 groups, each with 100 ducks. Different types of salts of isopropoxy-phenylguanidine were added to the feed according to Table 4. The ducks were free feeding and drinking during the test period of 28 days.

The test system of series [4] is broilers. Description: Effects of different concentrations of isopropoxy-phenylguanidine methanesulfonate on production performance of broilers. How it is done: Eight hundred (800) broilers aged 1 day were divided into 8 groups and each group with 100 broilers. Different concentrations of isopropoxy-phenylguanidine methanesulfonate were added to the same basic diets. The broilers were free feeding and drinking and continued feeding for 30 days, then to collect statistics of the production performance and the survival rate of broilers in each group.

[5] abbreviates: broilers, 5 ppm in feed, 30 days.
Where [6] appears, read: broilers, 10 ppm in feed, 30 days.
Setting [7] is: broilers, 20 ppm in feed, 30 days.
Setting [8] is: broilers, 50 ppm in feed, 30 days.
The mark [9] stands for this setting: broilers, 100 ppm in feed, 30 days.
[10] abbreviates: broilers, 200 ppm in feed, 30 days.
The mark [11] stands for this setting: broilers, 500 ppm in feed, 30 days.

The structures appear in SMILES notation.

In the case of `CC(C)Oc1ccc(C=NNC(=N)NN=Cc2ccc(OC(C)C)cc2)cc1.O=C(O)C(O)C(O)C(=O)O` [isopropoxy-phenylguanidine tartrate, 2,2′-bis[[4-(isopropoxy)phenyl]methylene]-diaminoguanidine tartrate], in series [1], the “Average daily weight gain” value is listed as 43.9 g, the “Average feed conversion ratio” value is 2.131 and the “Survival rate (%)” value came out at 98%.

Consider `CC(=O)O.CC(C)Oc1ccc(C=NNC(=N)NN=Cc2ccc(OC(C)C)cc2)cc1` [isopropoxy-phenylguanidine acetate, 2,2′-bis[[4-(isopropoxy)phenyl]methylene]-diaminoguanidine acetate], for which, in series [1], the “Average daily weight gain” value is 43.2 g, the “Average feed conversion ratio” value was 2.129 and the “Survival rate (%)” value amounted to 99%.

As to `CC(C)Oc1ccc(C=NNC(=N)NN=Cc2ccc(OC(C)C)cc2)cc1.O=S(=O)(O)CCO` [2,2′-bis[[4-(isopropoxy)phenyl]methylene]-diaminoguanidine 2-hydroxyethylsulfonate], in series [2], the “Average daily weight gain” value was 537 g, the Feed conversion ratio came to 1.697 and the “effect on production performance compared with hydrochloride” value (from here on “effect … compared with hydrochloride”) is given as “better than hydrochloride”. Besides, in series [1], the “Average daily weight gain” value is 49.1 g, the “Average feed conversion ratio” value is listed as 1.987, the “Survival rate (%)” value came out at 100% and the “effect … compared with hydrochloride” value was “better than hydrochloride”. Moreover, in series [3], the “Average daily weight gain” value is 67.9 g, the Feed conversion ratio came out at 1.835 and the “effect … compared with hydrochloride” value is “better than hydrochloride”.

For the compound `CC(C)Oc1ccc(C=NNC(=N)NN=Cc2ccc(OC(C)C)cc2)cc1.Cl` [isopropoxy-phenylguanidine hydrochloride, 2,2′-bis[[4-(isopropoxy)phenyl]methylene]-diaminoguanidine hydrochloride, reference compound], in series [2], the “Average daily weight gain” value is listed as 512 g and the Feed conversion ratio came to 1.754. For the same compound, in series [1], the “Average daily weight gain” value is reported as 46.6 g, the “Average feed conversion ratio” value is recorded as 2.087 and the “Survival rate (%)” value is recorded as 100%. Also, in series [3], the “Average daily weight gain” value came to 65.3 g and the Feed conversion ratio was 1.874.

For `CC(C)Oc1ccc(C=NNC(=N)NN=Cc2ccc(OC(C)C)cc2)cc1.O=P(O)(O)O` [isopropoxy-phenylguanidine phosphate, 2,2′-bis[[4-(isopropoxy)phenyl]methylene]-diaminoguanidine phosphate], in series [1], the “Average daily weight gain” value is on record as 44.0 g, the “Average feed conversion ratio” value worked out at 2.139 and the “Survival rate (%)” value came to 100%. In series [3], the “Average daily weight gain” value amounted to 61.2 g and the Feed conversion ratio is on record as 1.926.

Turning to `CC(C)Oc1ccc(C=NNC(=N)NN=Cc2ccc(OC(C)C)cc2)cc1.O=C(O)/C=C\C(=O)O` [isopropoxy-phenylguanidine maleate, 2,2′-bis[[4-(isopropoxy)phenyl]methylene]-diaminoguanidine maleate], in series [1], the “Average daily weight gain” value is 44.1 g, the “Average feed conversion ratio” value was found to be 2.137 and the “Survival rate (%)” value worked out at 100%.

Turning to `CC(C)Oc1ccc(C=NNC(=N)NN=Cc2ccc(OC(C)C)cc2)cc1.O=S(=O)(O)O` [isopropoxy-phenylguanidine sulfate, 2,2′-bis[[4-(isopropoxy)phenyl]methylene]-diaminoguanidine sulfate], in series [1], the “Average daily weight gain” value was determined as 43.7 g, the “Average feed conversion ratio” value stood at 2.131 and the “Survival rate (%)” value came out at 100%.

For `CC(C)Oc1ccc(C=NNC(=N)NN=Cc2ccc(OC(C)C)cc2)cc1.O=C(O)C(=O)O` [isopropoxy-phenylguanidine oxalate, 2,2′-bis[[4-(isopropoxy)phenyl]methylene]-diaminoguanidine oxalate], in series [1], the “Average daily weight gain” value was 43.1 g, the “Average feed conversion ratio” value was determined as 2.145 and the “Survival rate (%)” value was 100%.

For the compound `CC(C)Oc1ccc(C=NNC(=N)NN=Cc2ccc(OC(C)C)cc2)cc1.O=C(O)CCC(=O)O` [isopropoxy-phenylguanidine succinate, 2,2′-bis[[4-(isopropoxy)phenyl]methylene]-diaminoguanidine succinate], in series [1], the “Average daily weight gain” value worked out at 43.6 g, the “Average feed conversion ratio” value came to 2.143 and the “Survival rate (%)” value was found to be 100%.

Regarding `CC(C)Oc1ccc(C=NNC(=N)NN=Cc2ccc(OC(C)C)cc2)cc1.O=C(O)CC(O)(CC(=O)O)C(=O)O` [isopropoxy-phenylguanidine citrate, 2,2′-bis[[4-(isopropoxy)phenyl]methylene]-diaminoguanidine citrate], in series [2], the “Average daily weight gain” value is reported as 491 g and the Feed conversion ratio was found to be 1.803. For the same compound, in series [1], the “Average daily weight gain” value is given as 44.5 g, the “Average feed conversion ratio” value is 2.125 and the “Survival rate (%)” value is listed as 100%.

On to `CC(C)Oc1ccc(C=NNC(=N)NN=Cc2ccc(OC(C)C)cc2)cc1.CC(O)C(=O)O` [isopropoxy-phenylguanidine lactate, 2,2′-bis[[4-(isopropoxy)phenyl]methylene]-diaminoguanidine DL-lactate], for which, in series [2], the “Average daily weight gain” value stood at 535 g, the Feed conversion ratio is recorded as 1.701 and the “effect … compared with hydrochloride” value was “better than hydrochloride”. In series [1], the “Average daily weight gain” value came to 47.9 g, the “Average feed conversion ratio” value was 2.006, the “Survival rate (%)” value is 100% and the “effect … compared with hydrochloride” value was “better than hydrochloride”. For the same compound, in series [3], the “Average daily weight gain” value was determined as 67.8 g, the Feed conversion ratio came out at 1.827 and the “effect … compared with hydrochloride” value is given as “better than hydrochloride”.

Turning to `CC(C)Oc1ccc(C=NNC(=N)NN=Cc2ccc(OC(C)C)cc2)cc1.O=C(O)/C=C/C(=O)O` [isopropoxy-phenylguanidine fumarate, 2,2′-bis[[4-(isopropoxy)phenyl]methylene]-diaminoguanidine fumarate], in series [1], the “Average daily weight gain” value was 44.1 g, the “Average feed conversion ratio” value is 2.136 and the “Survival rate (%)” value is listed as 99%.

In the case of `CC(C)Oc1ccc(C=NNC(=N)NN=Cc2ccc(OC(C)C)cc2)cc1.O=C(O)c1ccccc1` [isopropoxy-phenylguanidine benzoate, 2,2′-bis[[4-(isopropoxy)phenyl]methylene]-diaminoguanidine benzoate], in series [1], the “Average daily weight gain” value was found to be 44.7 g, the “Average feed conversion ratio” value was found to be 2.126 and the “Survival rate (%)” value is 100%.

For `CC(C)Oc1ccc(C=NNC(=N)NN=Cc2ccc(OC(C)C)cc2)cc1.CS(=O)(=O)O` [2,2′-bis[[4-(isopropoxy)phenyl]methylene]-diaminoguanidine methanesulfonate], the “Daily weight gain” value in series [4] (setting [5]) is listed as 42.3 g; in series [4] (setting [6]) it was 43.4 g; in series [4] (setting [7]), 44.5 g; in series [4] (setting [8]), 48.9 g; in series [4] (setting [9]) it was 49.6 g; in series [4] (setting [10]) it was 49.2 g. The “Daily weight gain” value in series [4] (setting [11]) is on record as 49.5 g. Further, the Feed conversion ratio in series [4] (setting [5]) is 2.150; in series [4] (setting [6]), 2.138; in series [4] (setting [7]), 2.119; in series [4] (setting [8]), 2.087; in series [4] (setting [9]), 2.076; in series [4] (setting [10]) it was 2.071. The Feed conversion ratio is on record as 2.073 in series [4] (setting [11]), 1.713 in series [2] and 1.831 in series [3]. The “Survival rate (%)” value in series [4] (setting [5]), in series [4] (setting [6]), in series [4] (setting [7]), in series [4] (setting [8]), in series [4] (setting [9]) and in series [4] (setting [10]) was 100% each time. Besides, the “Survival rate (%)” value in series [4] (setting [11]) and in series [1] was 100% each time. Moreover, the “effect on production performance of broilers” value in series [4] (different concentrations (5-500 ppm) in feed, 30 days) is listed as “significantly improve the production performance”. The “negative impacts on the production performance” value in series [4] (high concentrations in feed, broilers) is “no negative impacts”. Further, the figures for the “Average daily weight gain” value in series [2], in series [1] and in series [3] were 529 g, 48.8 g and 68.4 g, respectively. Also, the “effect … compared with hydrochloride” value in series [2], in series [1] and in series [3] was “better than hydrochloride” throughout. Moreover, the “Average feed conversion ratio” value in series [1] is on record as 1.999.
